Values quoted from earlier work in US7799547B2, “Purified polypeptides from Staphylococcus aureus” (Affinium Pharmaceuticals, Inc., priority 2003, dated 2010).

What was measured:
S. aureus FabI = S. aureus FabI (Staphylococcus aureus, UniProt Q6GI75)
E. coli FabI = E. coli FabI (Escherichia coli, UniProt P0AEK4)
[1] = system: panel of clinical isolates of S. aureus; conditions: clinical isolates of S. aureus resistant to different classes of antibiotics
MRSA strain WCUH29 = conditions: rat, oral administration at 50 mg/kg

Chain of E. coli FabI (P0AEK4 whole entry): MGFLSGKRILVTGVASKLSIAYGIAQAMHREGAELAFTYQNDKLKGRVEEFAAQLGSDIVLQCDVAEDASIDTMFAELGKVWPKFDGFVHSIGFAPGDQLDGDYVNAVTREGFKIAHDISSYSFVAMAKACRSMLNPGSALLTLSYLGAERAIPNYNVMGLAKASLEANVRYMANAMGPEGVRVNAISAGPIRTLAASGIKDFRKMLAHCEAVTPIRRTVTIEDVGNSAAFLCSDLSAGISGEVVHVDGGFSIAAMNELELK
Chain of S. aureus FabI (Q6GI75 whole entry): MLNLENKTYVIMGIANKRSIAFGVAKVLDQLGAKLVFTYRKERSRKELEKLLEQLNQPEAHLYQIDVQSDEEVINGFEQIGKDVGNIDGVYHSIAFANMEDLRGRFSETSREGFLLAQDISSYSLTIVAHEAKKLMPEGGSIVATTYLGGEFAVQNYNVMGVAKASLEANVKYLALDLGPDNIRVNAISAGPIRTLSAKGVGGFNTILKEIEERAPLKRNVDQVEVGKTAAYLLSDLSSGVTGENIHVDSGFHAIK

Compound | Inhibition of S. aureus FabI (S. aureus FabI) | Inhibition of E. coli FabI (E. coli FabI) | MIC90 fold lower than those of the commercial antibiotics tested [1] [fold] | Reduction in bacterial counts relative to untreated controls (MRSA strain WCUH29) [log]
Oc1cc(Cl)ccc1Oc1ccc(Cl)cc1Cl [triclosan] | inhibited | inhibited |  | 
Oc1c(Cl)cc(Cl)c(Cl)c1Cc1c(O)c(Cl)cc(Cl)c1Cl [hexachlorophene] | inhibited | inhibited |  | 
Cc1[nH]c2ccccc2c1CN(C)C(=O)/C=C/c1cnc2c(c1)CCC(=O)N2 [API-1135] |  |  | > 500 | 3.5
